Measured values as given in patent publication US12377094B2, “Therapeutic compositions and methods for treating checkpoint inhibitor-resistant tumors using plinabulin-based combination therapies” (BeyondSpring Pharmaceuticals, Inc., priority 2021, dated 2025).

Experiment: Dose-escalation Phase I study of nivolumab, ipilimumab and plinabulin: safety (DLT, RP2D, treatment-related AEs, irAEs)
Format: in vivo, human
Conditions: with nivolumab 1 mg/kg and ipilimumab 3 mg/kg, IV day 1 of 21 day cycle; dose-level 2
Source text: In a dose-escalation Phase I study, patients with recurrent extensive-stage small cell lung cancer (SCLC) who had progressed on prior platinum-based chemotherapy were enrolled using a 3+3 design. The primary objective was to determine dose-limiting toxicities (DLT's) and recommended Phase 2 dose (RP2D). Patients were evaluable for DLT if they received at least two cycles of therapy; DLT period was defined as the first six weeks. Secondary endpoints were ORR, PFS and frequency of irAEs. Correlative analysis included inflammatory biomarkers: hsCRP, ESR, SAA and haptoglobin.
Patients received nivolumab (1 mg/kg), ipilimumab (3 mg/kg) and plinabulin (as per dose escalation schema) IV on day 1 of each 21 day cycle. After completion of 4 cycles, patients continued therapy with nivolumab (240 mg) and plinabulin every 2 weeks till progression or intolerable toxicity. Patients were evaluable for DLT if they received at least 2 cycles of therapy; DLT period was defined as the first 6 weeks from C1D1.

Structure (SMILES): CC(C)(C)c1[nH]cnc1/C=c1\[nH]c(=O)/c(=C/c2ccccc2)[nH]c1=O [plinabulin, (3Z,6Z)-3-Benzylidene-6-{[5-(2-methyl-2-propanyl)-1H-imidazol-4-yl]methylene}-2,5-piperazinedione]
- recommended Phase 2 dose (RP2D) of plinabulin: 30 mg/m2
